Read-outs that look alike come from different tables or passages of the source.
What was measured:
[1] = 45 mg/kg, 72 hours; cited from earlier work
[2] = test system: sheep liver glutathione-S-arene oxide transferase; test: Km's for conjugation of GSH and naphthalene oxide, partially purified transferase; assay type: in vitro ADME; conditions: one-half of value for racemic naphthalene oxide, pH 7.4, read-out: Km for 1R, 2S-- or 1S, 2R-- NO (conjugation with GSH)
Excerpt: (§1) The rate of reaction of naphthalene oxide with GSH is assumed to be of the form V=Vmax*{1GSH/(GSH+Kml)}*{NO/(NO+Km2)}. […] Work with partially purified sheep liver glutathione-S-arene oxide transferase has provided Km's for conjugation of GSH and racemic naphthalene oxide at pH 7.4 (Hayakawa, T., LeMahieu, R. A., and Udenfriend, S., "Studies on Glutathione-S-arene Oxide Transferase--a Sensitive Assay", Arch. Biochem. Biophys. 162: 223-230 (1974), which is hereby incorporated by reference). Individual glutathione-S-transferase isozymes are enantioselective with respect to naphthalene oxide (O'Brien, K. A. F., Suverkropp, C., Kanekal, S., Plopper, C. G., and Buckpitt, A. R., "Tolerance to Multiple Doses of the Pulmonary Toxicant, Naphthalene", Toxicol. Appl. Pharmacol. 99: 487-500 (1989), which is hereby incorporated by reference), but GSH conjugation proceeds equally fast with 1R, 2S- and 1S, 2R-naphthalene oxide (Buonarati, M., Jones, A. D., and Buckpitt, A., "In vivo Metabolism of Isomeric Naphthalene Oxide Glutathione Conjugates", Drug Metab. Dispos. 18: 183-189 (1990), which is hereby incorporated by reference). Therefore Vmax's for conjugation with each enantiomer are assumed equal, and the Km for reaction with each enantiomer is assumed to be one-half of the value reported for racemic naphthalene oxide.

human lymphocytes = test: Viability of human lymphocytes after 24 hr BrdU exposure and 30 sec UV light in the multicompartmental cell culture system (trypan blue); assay type: cell-based; conditions: 750 mg BrdU in 500 mL system
Procedure: Approximately 14 mL of freshly drawn human blood were collected into EDTA tubes (Becton Dickinson, Lincoln Park, N.J.). To this blood sample was added 4 mL of Hanks balanced salt solution. Two and one-half mL of the blood solution was layered onto 3 mL of ficoll (Pharmacia, Piscataway, N.J.) and centrifuged at 1500 rpm for 20 min at ambient temperature. The pellet was washed in an equal volume of Hanks balanced salt solution and recentrifuged. All lymphocytes collected from the 14 mL blood sample were seeded into 100 mL of RPMI 1640 (Gibco, Grand Island, N.Y.) and placed in a Forma Scientific water-jacketed incubator (Fisher Scientific, Philadelphia, Pa.) set at 37° C. with 5 percent CO2 overnight.
The multicompartmental cell culture system ("MCCS") of the present invention was used to expose both normal and transformed cells to an antineoplastic compound simultaneously. The volume of distribution of the system was 500 mL. Each compartment (T-flask, Becton Dickinson, Lincoln Park, N.J.) contained 75 mL of cell culture medium (RPMI 1640 as previously described). […]
(§2) Following the 24 hr. exposure period, both human lymphocytes and rat hepatoma cells were exposed to a UV light source for 30 sec. Viable cells were determined and enumerated by trypan blue dye exclusion on a hemacytometer immediately following UV exposure.

H4IIE cells = test: Viability of H4IIE hepatoma cells after 24 hr BrdU exposure and 30 sec UV light in the multicompartmental cell culture system (trypan blue); assay type: cell-based, rat
Procedure: A rat hepatoma cell line, H4IIE obtained from the American Type Culture Collection (Bethesda, Md.), was cultured in RPMI Medium 1640 with 5 percent fetal calf serum, L-glutamine and antibiotics (penicillin G, streptomycin and amphotericin B) (Gibco Island, N.Y.). Cells were seeded 24 hr before the experiment. Attachment of H4IIE cells occurs several hours following seeding. Density was approximately 20 percent of confluence at the start of the experiment.
The multicompartmental cell culture system ("MCCS") of the present invention was used to expose both normal and transformed cells to an antineoplastic compound simultaneously. The volume of distribution of the system was 500 mL. Each compartment (T-flask, Becton Dickinson, Lincoln Park, N.J.) contained 75 mL of cell culture medium (RPMI 1640 as previously described). The flow rate was set at 5 mL per min. and maintained by means of a peristaltic pump (Millipore, Bedford, Mass.). The entire system was placed inside a Forma Scientific water-jacketed incubator (Fisher Scientific, Philadelphia, Pa.) set at 37° C. with 5 percent CO2. […]
as §2

[3] = test system: sheep liver glutathione-S-arene oxide transferase; conditions: read-out: Km for GSH, pH 7.4, cited from earlier work
[4] = test system: lung microsomes and cytosolic protein; test: Conjugation of naphthalene oxide with GSH, mouse lung; assay type: in vitro ADME; conditions: assumed equal for each enantiomer
Excerpt: as §1

[5] = test system: liver microsomes and cytosolic protein; test: Conjugation of naphthalene oxide with GSH, mouse liver; assay type: in vitro ADME; conditions: assumed equal for each enantiomer
Excerpt: as §1

lung microsomes [6] = test: Conjugation of naphthalene oxide with GSH, rat lung; assay type: in vitro ADME; set-up: unit not given here; conditions: assumed equal for each enantiomer
Excerpt: (§3) Determination of Vmax's and Km's for naphthalene oxide production and Vmax's for GSH conjugates and dihydrodiol production in rat microsomes were done in the same way as for the mouse. Sources of data were Buckpitt, et al, 1987, supra, Hesse, S. and Mezger, M., "Involvement of Phenolic Metabolites in the Irreversible Protein-binding of Aromatic Hydrocarbons: Reactive Metabolites of [^14 C]-naphthalene and [^14 C] 1-naphthol Formed by Rat Liver Microsomas", Mol. Pharmacol. 16: 667-675 (1979) which is hereby incorporated by reference, O'Brien et al., 1985, supra, van Bladeren et al., 1985, supra, and Yost, G. S., Buckpitt, A. R., Roth, R. A., and McLemore, T. L., "Mechanisms of Lung Injury by Systematically Administered Chemicals", Toxicol. Appl. Pharmacol. 101: 179-195 (1989), which is hereby incorporated by reference.

liver microsomes [7] = test: Conjugation of naphthalene oxide with GSH, rat liver; assay type: in vitro ADME; set-up: unit not given here; conditions: assumed equal for each enantiomer
Excerpt: as §3

protein = test: Covalent binding of naphthalene oxide to protein in hepatocytes; assay type: in vitro ADME; conditions: non-enzymatic; from hepatocyte incubations
Procedure: The first order rate constant for non-enzymatic rearrangement of naphthalene oxide to 1-naphthol has been reported (van Bladeran et al., 1985, supra). The rate of covalent binding was determined from data reported for incubations of hepatocytes with naphthalene oxide (Buonarati et al., 1989, supra).

[8] = non-enzymatic; cited from earlier work
liver GSH = conditions: 48 hours after xylene; cited from earlier work
lung microsomes [9] = conditions: 48 hours after xylene; cited from earlier work
liver microsomes [10] = conditions: 48 hours after xylene; cited from earlier work

Oc1cccc2ccccc12 [1 naphthol, 1-Naphthol]
percent of dose recovered [1]: Eighty-one

C1=C[C@@H]2O[C@@H]2c2ccccc21 [1R, 2S NO, 1R, 2S-naphthalene oxide]
Km ([2]; Mouse): 50 µM | Km ([2]; Rat): 50 µM

C1=C[C@H]2O[C@H]2c2ccccc21 [1S, 2R NO, 1S, 2R-naphthalene oxide]
Km ([2]; Mouse): 50 µM | Km ([2]; Rat): 50 µM

O=c1[nH]c(=O)n([C@H]2C[C@H](O)[C@@H](CO)O2)cc1Br [BrdU, 5-bromo-2'-deoxyuridine]
viable human lymphocytes following UV exposure (human lymphocytes): Eighty-nine | viable H4IIE cells following UV exposure (H4IIE cells; 750 mg BrdU in 500 mL system, 30 sec UV): fifty-three | uptake of BrdU by hepatoma cells versus lymphocytes (H4IIE cells; MCCS, inferred from killing): greater uptake of the BrdU by the hepatoma cells than the lymphocytes

N[C@@H](CCC(=O)N[C@@H](CS)C(=O)NCC(=O)O)C(=O)O [GSH, glutathione]
Km ([3]; Mouse): 3.3 mM | Km ([3]; Rat): 3.3 mM

C1=CC2OC2c2ccccc21 (stereo not shown) [NO, naphthalene oxide]
Vmax, conjugation with GSH [4]: 22.5 nmol/mg/min | Vmax, conjugation with GSH [5]: 150 nmol/mg/min | Vmax, conjugation with GSH (lung microsomes [6]): 400 | Vmax, conjugation with GSH (liver microsomes [7]): 500 | Binding to protein (protein): 0.2 pmole/mg/min/μM NO | First order rate constant for rearrangement to 1-napthol [8]: 0.25 min⁻¹

xylene
GSH levels (liver GSH): return to normal | metabolism of naphthalene by lung microsomes, percent of the normal rate (lung microsomes [9]): 56% | metabolism of naphthalene by liver microsomes (liver microsomes [10]): return to normal
